One test concerns Rat Limb Bones (PTH induced bone resorption). In words: Bone Resorption Assay: 45Ca Release from Rat Limb Bones (PTH Induced). The class given is cell-based, rat (Sprague-Dawley CD). The note with it: Table I, 10 μg/mL. As to the method:
The purpose of this assay is to identify compounds that inhibit basal or stimulated bone resorption in culture.
The ability of 2-substituted-imidazo[4,5-c]pyridines to modify the process of bone resorption was evaluated essentially as described by L.G. Raisz, Bone resorption in tissue culture. Factors influencing the response to parathyroid hormone.
Timed pregnant Sprague-Dawley CD® rats (Charles River) are administered 100 μCi ^45 CaCl2 (NEN calcium -45 NEZ-013) in 100 μL of 0.9% saline, subcutaneously, on day 18 of gestation. The rats are sacrificed the following day by CO2 asphyxiation. The fetuses are removed and the right forelimbs excised and placed in a Petri dish containing ice cold explant medium consisting of modified BGJb -Fitton Jackson media (custom formulation, Gibco No. 78-0088) adjusted to pH 7.3 to which 10 mM TES is added. […] Under a dissecting microscope, the bones are gently cleaned of adherent tissue and the cartilaginous ends removed. Incubation and drug treatment. […] The preincubation medium is brought to 37° C. prior to transfer of bones. The preincubation medium consists of the modified BGJb medium (with salts and glucose as above), pH 7.3, containing 29 mM NaHCO3. […] For compounds that require nonaqueous solvents, dilutions are made from the appropriate stock solution with medium. In these instances, basal and bone resorption stimulated controls exposed to an equivalent concentration of the vehicle are included. […] The right ulna and radius from each fetus are used. Both bones are subjected to the same treatment and each treatment group consists of bones from 4 or more fetuses. Treatments are randomly assigned using a preclinical statistics program (PS-ALLOC). After a 48 hour incubation at 37° C. in 5% CO2, the bones are removed from the medium and extracted in 0.5 mL of 0.1N HCl for 1 or more days. Duplicate 150 μL aliquots of the incubation medium and the bone extract are analyzed for ^45 Ca radioactivity in 5 mL of liquid scintillation cocktail.
The percentage of bone ^45 Ca released into the medium is determined as follows: [formula] […]
Consider `[O-][S+](Cc1ccc(Cl)c(Cl)c1)c1nc2cnccc2[nH]1` (stereo not shown) [Example 6, 2-[[(3,4-Dichlorophenyl)methyl]sulfinyl]-1H-imidazo[4,5-c]pyridine], for which the “Inhibition of Bone Resorption, PTH Induced” value (“Inhibition … PTH Induced” for short) is recorded as “Active”.

The same test, now with this note: Table II, 10 μg/mL.
In the case of `COc1cccc(CSc2nc3cnccc3[nH]2)c1` [Example 2, 2-[[(3-Methoxyphenyl)methyl]thio]-1H-imidazo[4,5-c]pyridine], the “Inhibition … PTH Induced” value was “Inactive”. On to `Fc1cc(Br)ccc1CSc1nc2cnccc2[nH]1` [Example 20, 2-[[(4-Bromo-2-fluorophenyl)methyl]thio]-1H-imidazo[4,5-c]pyridine], for which the “Inhibition … PTH Induced” value was “Active”.

For the compound `Fc1cccc(Cl)c1CSc1nc2cnccc2[nH]1` [Example 9, 2-[[(2-Chloro-6-fluorophenyl)methyl]thio]-1H-imidazo[4,5-c]pyridine], the “Inhibition … PTH Induced” value is “Inactive”. Take `c1ccc(COc2cccc(CSc3nc4cnccc4[nH]3)c2)cc1` [Example 22, 2-[[[3-(Phenylmethoxy)phenyl]methyl]thio]-1H-imidazo[4,5-c]pyridine]: the “Inhibition … PTH Induced” value is “Active”. Take `c1ccc(CCSc2nc3cnccc3[nH]2)cc1` [Example 13, 2-[(2-Phenylethyl)thio]-1H-imidazo[4,5-c]pyridine]: the “Inhibition … PTH Induced” value was “Inactive”.

The test system of the next test is Rat Limb Bones (basal bone resorption). In words: Basal Bone Resorption Assay: 45Ca Release from Rat Limb Bones. The test is classed as cell-based. Particulars: Table I, 10 μg/mL. From the text:
The purpose of this assay is to test stimulators and inhibitors of bone resorption in vitro. The release of ^45 Ca from in vitro labeled murine bone explants into the culture media is taken as an index of bone resorption.
Rat pups are labelled […] by injecting pregnant dams (18 days) with 100 μCi of ^45 Ca.
Two days after the initiation of labelling, the dam is anesthetized with halothane and killed by cervical dislocation. The pups are ablated and quickly decapitated. The calvaria (frontal and parietal bones), forelimbs (containing radii and ulnae), and hind limbs (tibiae) are removed and placed in control media in a petri dish. Bones are debrided of soft tissue by a combination of blunt dissection, and gentle rolling on bibulous paper, taking care not to disturb the periosteum. Cartilaginous ends are cut off long bones. Calvaria are cut in half along midline suture. Bones are separated into 3 categories: calvaria halves, Tibiae and ulnae/radii. Groups of eight (per bone group) are randomly placed in 24-well culture plates containing 0.5 mL of control media. Cultures are maintained at 37° C. in a humidified incubator of 95% air: 5% CO2.
These bones are incubated for 24 hours, media is aspirated from the bones and replaced with fresh media containing test substances. Each bone group has a control group of 8 and a dead bone group of 8. The devitalized cultures are obtained by heating the bones in medium at 55° C. for 60 minutes. The bones are incubated at 37° C. for an additional 72 hours. At the end of this period a 100 microliter aliquot of media is removed and placed in a scintillation vial. Ten mL of Aquasol is added, the ^45 Ca is quantified in a scintillation spectrometer. Bones are rinsed in saline, placed in a scintillation vial, hydrolyzed overnight in 0.75 mL 6N HCl at room temperature. The hydrolyzed bone solution is neutralized by the addition of 2.25 mL of 2N NaOH, followed by 10 mL of Aquasol, the ^45 Ca content is determined by scintillation spectrometry.
Analysis: ^45 Ca release into culture medium from the 24-96 hour period is individually compared to ^45 Ca release in control cultures and to devitalized bone via Dunnett's test. […]
Regarding `[O-][S+](Cc1ccc(Cl)c(Cl)c1)c1nc2cnccc2[nH]1` (stereo not shown) [Example 6, 2-[[(3,4-Dichlorophenyl)methyl]sulfinyl]-1H-imidazo[4,5-c]pyridine], the “Inhibition of Bone Resorption, Basal” value was “Active”.

The test is the same for the next values; noted with them: Table II, 10 μg/mL.
In the case of `FC(F)(F)c1cccc(CSc2nc3cnccc3[nH]2)c1` [Example 7, 2-[[[3-(Trifluoromethyl)phenyl]methyl]thio]-1H-imidazo[4,5-c]pyridine], the “Inhibition of Bone Resorption, Basal” value was “Active”.

Regarding `COc1cccc(CSc2nc3cnccc3[nH]2)c1` [Example 2, 2-[[(3-Methoxyphenyl)methyl]thio]-1H-imidazo[4,5-c]pyridine], the “Inhibition of Bone Resorption, Basal” value was “Inactive”. `Fc1cc(Br)ccc1CSc1nc2cnccc2[nH]1` [Example 20, 2-[[(4-Bromo-2-fluorophenyl)methyl]thio]-1H-imidazo[4,5-c]pyridine]: the “Inhibition of Bone Resorption, Basal” value was “Inactive”. With `c1ccc(CSc2nc3cnccc3[nH]2)cc1` [Example 11, 2-[[(Phenyl)methyl]thio]-1H-imidazo[4,5-c]pyridine], the “Inhibition of Bone Resorption, Basal” value is “Inactive”. Consider `Fc1cccc(Cl)c1CSc1nc2cnccc2[nH]1` [Example 9, 2-[[(2-Chloro-6-fluorophenyl)methyl]thio]-1H-imidazo[4,5-c]pyridine], for which the “Inhibition of Bone Resorption, Basal” value is “Inactive”. Take `c1ccc(COc2cccc(CSc3nc4cnccc4[nH]3)c2)cc1` [Example 22, 2-[[[3-(Phenylmethoxy)phenyl]methyl]thio]-1H-imidazo[4,5-c]pyridine]: the “Inhibition of Bone Resorption, Basal” value was “Inactive”. Same read-out and setting: under `Clc1ccc(CSc2nc3cnccc3[nH]2)cc1Cl` [Example 5, 2-[[(3,4-Dichlorophenyl)methyl]thio]-1H-imidazo[4,5-c]pyridine] stands “Inactive”; under `c1ccc(CCSc2nc3cnccc3[nH]2)cc1` [Example 13, 2-[(2-Phenylethyl)thio]-1H-imidazo[4,5-c]pyridine], “Inactive”.

The subject of a further test is osteopenia induced by denervation of the sciatic nerve in rats. In words: Denervation Induced Osteopenia in Rats. The note with it: Table II, 25 mg/kg, i.p. The test is classed as in vivo, rat (female Sprague Dawley CD). From the text:
The purpose of this assay is to evaluate the effect, in rats, of agents on the reduction in bone mass (osteopenia) induced by immobilization resulting from surgical severance (denervation) of the sciatic nerve.
The animals are housed in plastic cages (4 or 5 rats/cage) with food (rat purina 500 chow) and water ad libitum; 14/10 day/night cycle.
After one week of in-house acclimatization, the animals are randomly divided into groups of 6 to 10 rats/group. Each rat is weighed, anesthetized with an intraperitoneal administration of 100 mg/kg ketamine (Bristol Laboratories, Syracuse, N.Y.) and 0.75 mg/kg Acepromazine (Aveco, Ft. Dodge, Iowa). The left hind limb is shaved and denervated by making a lateral incision parallel to the femur and by surgically removing half of a centimeter of the sciatic nerve adjacent to caudofemoralis and adductor brevis muscles. The incision is closed with wound clips. After surgery, the rats are housed in cages with absorbent bedding to minimize additional trauma to the immobilized limb. A 24 hour post-surgery recovery period is allowed before the initiation of the drug treatment.
The concentration of the drug stock is calculated to be delivered in a volume of 0.1 mL/100 gram body weight. The drug solution or a uniform suspension is prepared in 1% Tween 80 in normal saline. The drugs are administered via oral or parenteral routes daily (five times a week) for four weeks.
A sequential triple labeling of mineralized tissue is employed to determine the osseous changes (especially the bone formation) and the mineralization rates. Each animal is administered 90 mg/kg Xylenol orange (Fisher Scientific Company), S.C., 15 mg/kg Calcein (Sigma Chemical Company), S.C. and 15 mg/kg Demeclocycline (Sigma Chemical Company), i.p., approximately 21 days, 10 days and 2 days prior to the termination of the study, respectively.
At the end of the fourth week, each rat is weighed, anesthetized with an intraperitoneal administration of 100 mg/kg ketamine with 0.75 mg/kg Acepromazine and approximately 4 mL of blood collected via cardiac puncture. The anesthetized rats are euthanized by exposure to carbon dioxide. The femora and tibiae from both limbs are dissected free of soft tissue. (i) Femora are ashed at ~1100° C. for 16 hours using a muffle furnace. --(ii) Proximal tibia are fixed, dehydrated and embedded undecalcified in a methyl methacrylate-glycol methacrylate mixture. Longitudinal tissue sections (10 microns) are prepared on a Polycut S microtome (Reichert). Staining is performed on free-floating sections using a modified Goldner's stain, which are then mounted and coverslipped.
Cancellous bone content in the proximal tibia is quantified (as two dimensional bone mineral area [B.Ar]) with an image analysis processing device (software developed by Drexel University).
The areas of the tibia selected for cancellous bone content evaluation are the primary and secondary spongiosa. To select and standardize this area for evaluation, the epiphyseal growth plate-metaphyseal junction is oriented parallel to the abscissa of the digitizing screen. Bone elements 1.7 mm (secondary spongiosa) and 0.2 mm (primary spongiosa) from the growth plate and equidistant from the flanking cortical elements are then quantified as described above. The total area evaluated is 2.30 mm wide and 1.45 mm deep, constituting a 3.34 mm^2 area.
Body weight, femur mass (dried or ashed) and trabecular (cancellous) bone mineral area (B.Ar) are determined.
The difference (both absolute and percent change) in femur mass and bone mineral area between intact (control) and denervated limbs of a treatment group are compared with that for the vehicle group using a one-way analysis of variance with Dunnett's test, or other multiple comparison methods.
The results are reported in Table I and II under the heading In Vivo.
As for `COc1cccc(CSc2nc3cnccc3[nH]2)c1` [Example 2, 2-[[(3-Methoxyphenyl)methyl]thio]-1H-imidazo[4,5-c]pyridine], the “Inhibition of Bone Resorption, In Vivo” value is “Active”.

Values taken from US5081253A, “Imidazo(4,5-C)pyridines as antiosteoporotic agents” (American Home Products Corporation, priority 1990, dated 1992).
